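In this assay, cells in 96-well plates receive the compound at five concentrations for 48 hours. Endpoints are linearly interpolated between the surrounding concentrations. At the TGI there is no net growth.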
How the values were obtained:
Experiment in all cases: NCI tumour cell line growth inhibition, 48 h
[1] = tested on: SK-OV-3 ovarian
[2] = tested on: EKVX NSCLC
[3] = tested on: RXF 393 renal
[4] = tested on: ACHN renal
[5] = tested on: SR leukemia
[6] = tested on: MALME-3M melanoma
[7] = tested on: LXFL 529 NSCLC
[8] = tested on: SN12C renal
[9] = tested on: NCI-H226 lung
[10] = tested on: OVCAR-5 ovarian
[11] = tested on: XF 498 CNS
[12] = tested on: UACC-62 melanoma
[13] = tested on: SK-MEL-28 melanoma
[14] = tested on: K-562 leukemia
[15] = tested on: SF-295 CNS
[16] = tested on: UACC-257 melanoma
[17] = tested on: A549 NSCLC
[18] = tested on: LOX IMVI melanoma
[19] = tested on: NCI-H460 lung
[20] = tested on: RXF-631 renal
[21] = tested on: COLO 205 colon
[22] = tested on: SNB-19 CNS
[23] = tested on: SNB-75 CNS
[24] = tested on: SNB-78 CNS
[25] = tested on: HL-60(TB) leukemia
[26] = tested on: DMS 114 small cell lung
[27] = tested on: UO-31 renal
[28] = tested on: SW-620 colon
[29] = tested on: M19-MEL melanoma
[30] = tested on: OVCAR-8 ovarian
[31] = tested on: RPMI-8226 leukemia
[32] = tested on: SK-MEL-2 melanoma
[33] = tested on: SK-MEL-5 melanoma
[34] = tested on: IGROV1 ovarian
[35] = tested on: HCT-15 colon
[36] = tested on: HOP-92 NSCLC
[37] = tested on: SF-539 CNS
[38] = tested on: HCT-116 colon
[39] = tested on: A498 renal
[40] = tested on: M14 melanoma
[41] = tested on: HOP-62 NSCLC
[42] = tested on: DLD-1 colon
[43] = tested on: HOP-18 NSCLC
[44] = tested on: HCC-2998 colon
[45] = tested on: MOLT-4 leukemia
[46] = tested on: SF-268 CNS
[47] = tested on: CCRF-CEM leukemia
[48] = tested on: TK-10 renal
[49] = tested on: 786-0 renal
[50] = tested on: HT29 colon
[51] = tested on: OVCAR-3 ovarian

COc1cccc(-c2cc(=O)c3cc4c(cc3[nH]2)OCO4)c1
TGI [1]: 1.15 µM | TGI [2]: > 100 µM | TGI [3]: 0.474 µM | TGI [4]: > 48.2 µM | TGI [5]: > 100 µM | TGI [6]: > 67.6 µM | TGI [7]: 23.2 µM | TGI [8]: > 100 µM | TGI [9]: 0.593 µM | TGI [10]: 3.02 µM | TGI [11]: 2.59 µM | TGI [12]: > 100 µM | TGI [13]: > 100 µM | TGI [14]: > 100 µM | TGI [15]: 0.828 µM | TGI [16]: > 100 µM | TGI [17]: > 100 µM | TGI [18]: > 100 µM | TGI [19]: 0.898 µM | TGI [20]: > 100 µM | TGI [21]: 0.303 µM | TGI [22]: > 45.1 µM | TGI [23]: 0.245 µM | TGI [24]: > 100 µM | TGI [25]: 0.896 µM | TGI [26]: > 100 µM | TGI [27]: > 100 µM | TGI [28]: > 100 µM | TGI [29]: > 100 µM | TGI [30]: 0.868 µM | TGI [31]: > 100 µM | TGI [32]: 3.77 µM | TGI [33]: 0.327 µM | TGI [34]: 6.12 µM | TGI [35]: 8.25 µM | TGI [36]: > 100 µM | TGI [37]: 0.317 µM | TGI [38]: > 100 µM | TGI [39]: 1.45 µM | TGI [40]: 2.95 µM | TGI [41]: 21.9 µM | TGI [42]: > 100 µM | TGI [43]: > 100 µM | TGI [44]: 0.934 µM | TGI [45]: > 100 µM | TGI [46]: > 69.5 µM | TGI [47]: > 100 µM | TGI [48]: 54.5 µM | TGI [49]: 10.2 µM | TGI [50]: 2.37 µM | TGI [51]: 0.452 µM

— PubChem BioAssay (NCI)
